Assay results published in ChEMBL document CHEMBL6182925 (J Med Chem, 2025).
pEC50, pIC50: −log10 of the molar value. Where “and” joins values, the source holds several entries; their conditions need not be identical. Identical values can stand only once. Calls of active or inactive are those of the source. No cut-off for these calls is given here.

Experiments:
[1] = target: cGMP-inhibited 3',5'-cyclic phosphodiesterase 3A (Homo sapiens) (UniProt Q14432); experiment: Inhibition of PDE3A (unknown origin) at 10 uM by CEREP analysis relative to control
[2] = Antitumor activity against human LU2503 cells xenografted in athymic BALB/c nude mouse at 6 mg/kg, po bid treated for 14 days relative to control; assay type: functional; settings: LU2503, 336 h, time 14 day, read-out: TGI
[3] = test system: EBC-1; experiment: Antitumor activity against human EBC-1 cells xenografted in athymic BALB/c nude mouse at 6 mg/kg, po bid treated for 21 days relative to control; assay type: functional; settings: EBC-1, 504 h, time 21 day, read-out: TGI
[4] = test system: Mus musculus; experiment: In vivo inhibition of MET phosphorylation in human LU2503 cells xenografted in athymic BALB/c nude mouse at 20 to 60 mg/kg, po measured after 12 hrs post-dose; assay type: functional, organism-based; settings: dose 20-60 mg/kg
[5] = test system: BaF3; experiment: Antitumor activity against mouse BaF3 cells harboring TPR-D1228N mutant cells allografted in athymic BALB/c nude mouse at 20 mg/kg, po bid treated for 10 days relative to control; assay type: functional; settings: BaF3, 240 h, time 10 day, read-out: TGI
[6] = AUClast in male Sprague-Dawley rat at 10 mg/kg, po; assay type: ADME, organism-based; settings: in vivo
[7] = test system: BaF3; experiment: cells; settings: Mus musculus, BaF3, 72 h
[8] = test system: BaF3; experiment: cells; settings: Mus musculus, BaF3, 72 h; remark: listed apart in the source
[9] = test system: BaF3; experiment: Antitumor activity against mouse BaF3 cells harboring TPR-D1228N mutant cells allografted in athymic BALB/c nude mouse at 6 mg/kg, po bid treated for 10 days relative to control; assay type: functional; settings: BaF3, 240 h, time 10 day, read-out: TGI
[10] = test system: EBC-1; experiment: Antitumor activity against human EBC-1 cells xenografted in athymic BALB/c nude mouse at 2 mg/kg, po bid treated for 21 days relative to control; assay type: functional; settings: EBC-1, 504 h, time 21 day, read-out: TGI
[11] = test system: BaF3; experiment: Antitumor activity against mouse BaF3 cells harboring TPR-D1228N mutant cells allografted in athymic BALB/c nude mouse at 2 mg/kg, po bid treated for 10 days relative to control; assay type: functional; settings: BaF3, 240 h, time 10 day, read-out: TGI
[12] = test system: BaF3; experiment: cells; settings: Mus musculus, BaF3, 72 h; remark: listed apart in the source
[13] = test system: EBC-1; experiment: Antitumor activity against human EBC-1 cells xenografted in athymic BALB/c nude mouse at 60 mg/kg, po bid treated for 21 days relative to control; assay type: functional; settings: EBC-1, 504 h, time 21 day, read-out: TGI
[14] = AUCfree in dog measured for 28 days; assay type: ADME, Canis lupus familiaris; settings: in vivo, 672 h, time 28 day
[15] = test system: Mus musculus; experiment: In vivo inhibition of MET phosphorylation in human EBC-1 cells xenografted in athymic BALB/c nude mouse at 20 to 60 mg/kg, po measured after 12 hrs post-dose; assay type: functional, organism-based; settings: dose 20-60 mg/kg
[16] = test system: Hepatocyte growth factor receptor (Homo sapiens), P08581 [Y1235D]; experiment: Inhibition of c-MET Y1235D mutant (unknown origin) at 100 nM in presence of ATP by HotSpot Kinome Selectivity analysis
Chain of Hepatocyte growth factor receptor (Homo sapiens), P08581 [Y1235D] (P08581 whole entry Y1235D): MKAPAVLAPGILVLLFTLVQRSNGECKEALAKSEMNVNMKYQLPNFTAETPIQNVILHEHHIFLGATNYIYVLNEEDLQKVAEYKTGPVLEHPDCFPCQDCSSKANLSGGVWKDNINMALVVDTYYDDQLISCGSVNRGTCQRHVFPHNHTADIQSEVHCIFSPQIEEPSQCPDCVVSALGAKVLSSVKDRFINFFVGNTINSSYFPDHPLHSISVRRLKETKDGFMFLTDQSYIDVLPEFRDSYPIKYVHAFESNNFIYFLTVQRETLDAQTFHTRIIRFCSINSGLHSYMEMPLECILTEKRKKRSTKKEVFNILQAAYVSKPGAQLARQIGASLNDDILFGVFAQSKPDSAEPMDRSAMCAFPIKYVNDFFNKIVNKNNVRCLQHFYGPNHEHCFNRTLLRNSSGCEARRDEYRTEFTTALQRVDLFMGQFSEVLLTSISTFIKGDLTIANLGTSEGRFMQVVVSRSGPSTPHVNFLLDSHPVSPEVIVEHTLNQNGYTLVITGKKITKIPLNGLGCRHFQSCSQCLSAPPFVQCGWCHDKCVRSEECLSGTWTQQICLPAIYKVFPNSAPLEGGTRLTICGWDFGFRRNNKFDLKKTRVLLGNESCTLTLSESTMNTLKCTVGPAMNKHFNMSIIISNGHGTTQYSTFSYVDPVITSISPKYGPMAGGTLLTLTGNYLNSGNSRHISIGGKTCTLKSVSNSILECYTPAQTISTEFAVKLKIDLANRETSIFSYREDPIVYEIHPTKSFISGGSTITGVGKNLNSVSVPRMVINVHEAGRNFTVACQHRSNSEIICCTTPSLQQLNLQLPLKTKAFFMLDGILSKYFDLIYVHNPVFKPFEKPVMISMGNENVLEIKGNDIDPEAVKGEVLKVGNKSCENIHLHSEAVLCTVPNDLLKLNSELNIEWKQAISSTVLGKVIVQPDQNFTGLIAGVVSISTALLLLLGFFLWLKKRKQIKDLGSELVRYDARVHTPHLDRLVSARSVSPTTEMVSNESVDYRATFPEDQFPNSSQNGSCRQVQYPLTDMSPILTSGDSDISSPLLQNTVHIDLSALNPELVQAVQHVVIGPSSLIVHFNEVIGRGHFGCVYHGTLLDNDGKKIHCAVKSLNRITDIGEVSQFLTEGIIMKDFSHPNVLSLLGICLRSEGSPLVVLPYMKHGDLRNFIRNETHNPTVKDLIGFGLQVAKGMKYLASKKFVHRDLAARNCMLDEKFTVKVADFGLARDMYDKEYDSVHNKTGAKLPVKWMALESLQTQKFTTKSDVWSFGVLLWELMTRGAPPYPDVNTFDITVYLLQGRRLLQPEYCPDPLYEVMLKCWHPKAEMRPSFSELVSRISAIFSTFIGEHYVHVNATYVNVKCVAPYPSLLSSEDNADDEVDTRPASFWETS

[17] = test system: BaF3; experiment: cells; settings: Mus musculus, BaF3, 72 h; remark: listed apart in the source
[18] = Clearance in male Beagle dog at 1 mg/kg, iv; assay type: ADME, organism-based, Canis lupus familiaris; settings: in vivo
[19] = target: 3',5'-cyclic-AMP phosphodiesterase 4D (Homo sapiens) (UniProt Q08499); experiment: Inhibition of PDE4D2 (unknown origin) at 10 uM by CEREP analysis relative to control
Chain of 3',5'-cyclic-AMP phosphodiesterase 4D (Homo sapiens) (Q08499 whole entry): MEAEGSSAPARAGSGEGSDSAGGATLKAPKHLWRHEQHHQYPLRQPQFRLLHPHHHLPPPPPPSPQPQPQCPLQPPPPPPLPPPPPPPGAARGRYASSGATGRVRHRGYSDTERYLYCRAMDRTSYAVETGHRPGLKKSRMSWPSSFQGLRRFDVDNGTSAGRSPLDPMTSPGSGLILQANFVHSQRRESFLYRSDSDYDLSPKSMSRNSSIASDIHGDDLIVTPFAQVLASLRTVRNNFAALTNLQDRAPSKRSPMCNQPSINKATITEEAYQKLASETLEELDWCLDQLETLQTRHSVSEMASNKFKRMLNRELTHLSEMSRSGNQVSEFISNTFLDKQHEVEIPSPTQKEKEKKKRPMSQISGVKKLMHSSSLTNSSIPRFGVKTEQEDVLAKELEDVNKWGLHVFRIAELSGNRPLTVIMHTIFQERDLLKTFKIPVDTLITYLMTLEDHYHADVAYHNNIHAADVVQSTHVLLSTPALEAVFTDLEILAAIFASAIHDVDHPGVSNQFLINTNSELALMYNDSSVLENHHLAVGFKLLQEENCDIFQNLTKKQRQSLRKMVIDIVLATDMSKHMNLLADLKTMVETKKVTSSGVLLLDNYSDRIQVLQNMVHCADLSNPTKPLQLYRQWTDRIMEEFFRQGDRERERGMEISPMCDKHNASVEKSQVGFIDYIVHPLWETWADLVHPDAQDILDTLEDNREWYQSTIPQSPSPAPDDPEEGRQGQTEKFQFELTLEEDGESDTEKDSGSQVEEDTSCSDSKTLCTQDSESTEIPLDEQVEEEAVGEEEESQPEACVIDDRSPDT

[20] = Clearance in female Balb/c mouse at 1 mg/kg, iv; assay type: ADME, organism-based; settings: in vivo
[21] = Toxicity in athymic BALB/c nude mouse xenografted with human LU2503 cells assessed as body weight loss at 2 to 60 mg/kg, po bid treated for 10 to 21 days; assay type: organism-based; settings: in vivo, dose lower 2 mg/kg, time lower 10 day, dose upper 60 mg/kg, time upper 21 day
[22] = AUClast in male Beagle dog at 10 mg/kg, po; assay type: ADME, organism-based, Canis lupus familiaris; settings: in vivo
[23] = target: PXR (Homo sapiens, UniProt O75469); experiment: Induction of PXR (unknown origin) assessed as fold increase in activity at 1 uM relative to control; assay type: toxicity; settings: read-out: FC
[24] = AUCfree in rat measured for 28 days; assay type: ADME; settings: in vivo, 672 h, time 28 day
[25] = test system: BaF3; experiment: cells; settings: Mus musculus, BaF3, 72 h; remark: listed apart in the source
[26] = test system: BaF3
[27] = target: AhR (Homo sapiens, UniProt P35869); experiment: Induction of AhR (unknown origin) assessed as fold increase in activity at 1 uM relative to control; assay type: toxicity; settings: read-out: FC
Chain of AhR (P35869 whole entry): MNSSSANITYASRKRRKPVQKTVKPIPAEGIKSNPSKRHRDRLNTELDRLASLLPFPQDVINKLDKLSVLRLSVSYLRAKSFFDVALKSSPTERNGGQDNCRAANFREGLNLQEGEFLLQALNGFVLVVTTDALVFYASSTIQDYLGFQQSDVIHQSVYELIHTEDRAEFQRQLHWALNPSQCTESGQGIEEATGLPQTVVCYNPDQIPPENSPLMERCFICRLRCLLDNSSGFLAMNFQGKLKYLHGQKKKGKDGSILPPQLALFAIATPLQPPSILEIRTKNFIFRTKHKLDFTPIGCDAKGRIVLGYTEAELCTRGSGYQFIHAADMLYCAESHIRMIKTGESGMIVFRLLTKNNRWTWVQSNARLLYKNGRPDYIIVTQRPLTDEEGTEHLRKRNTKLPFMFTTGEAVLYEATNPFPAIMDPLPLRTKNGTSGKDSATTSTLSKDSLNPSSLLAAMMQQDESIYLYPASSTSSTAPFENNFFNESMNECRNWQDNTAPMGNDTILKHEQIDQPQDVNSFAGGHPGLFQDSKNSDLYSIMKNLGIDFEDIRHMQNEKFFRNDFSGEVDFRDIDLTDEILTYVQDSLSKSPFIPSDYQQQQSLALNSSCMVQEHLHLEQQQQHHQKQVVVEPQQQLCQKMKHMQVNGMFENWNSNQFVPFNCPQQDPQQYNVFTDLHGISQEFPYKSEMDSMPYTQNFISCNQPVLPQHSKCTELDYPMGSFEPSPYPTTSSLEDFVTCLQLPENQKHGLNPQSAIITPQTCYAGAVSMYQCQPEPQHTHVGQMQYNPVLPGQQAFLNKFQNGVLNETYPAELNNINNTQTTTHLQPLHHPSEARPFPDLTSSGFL

[28] = Toxicity in rat assessed as drug tolerance measured for 28 days; settings: in vivo, 672 h, time 28 day
[29] = target: Sodium-dependent serotonin transporter (Homo sapiens) (UniProt P31645); experiment: Inhibition of SERT (unknown origin) at 10 uM by CEREP analysis relative to control
Chain of Sodium-dependent serotonin transporter (Homo sapiens) (P31645 whole entry, looked up): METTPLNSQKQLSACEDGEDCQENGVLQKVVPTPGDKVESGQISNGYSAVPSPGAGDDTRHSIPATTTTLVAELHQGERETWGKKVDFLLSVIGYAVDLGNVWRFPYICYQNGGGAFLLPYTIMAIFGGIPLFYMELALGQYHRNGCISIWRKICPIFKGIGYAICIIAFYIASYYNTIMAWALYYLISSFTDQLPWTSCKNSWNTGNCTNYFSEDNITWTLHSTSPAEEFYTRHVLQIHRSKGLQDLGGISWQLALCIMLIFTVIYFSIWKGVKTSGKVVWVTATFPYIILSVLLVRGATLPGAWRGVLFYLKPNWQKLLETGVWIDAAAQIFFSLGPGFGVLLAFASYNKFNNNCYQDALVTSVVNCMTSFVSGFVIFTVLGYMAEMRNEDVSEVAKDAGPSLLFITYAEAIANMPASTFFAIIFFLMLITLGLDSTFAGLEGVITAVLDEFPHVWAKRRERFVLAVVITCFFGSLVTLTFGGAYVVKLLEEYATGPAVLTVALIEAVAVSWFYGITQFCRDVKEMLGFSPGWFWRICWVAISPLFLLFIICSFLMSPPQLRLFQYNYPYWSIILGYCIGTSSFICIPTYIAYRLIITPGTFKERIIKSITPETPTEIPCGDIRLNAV

[30] = target: hERG (Homo sapiens, UniProt Q12809); experiment: Inhibition of hERG; assay type: toxicity
[31] = target: Hepatocyte growth factor receptor (Homo sapiens, UniProt P08581, D1228N); experiment: Inhibition of N-terminal GST-tagged recombinant human c-MET D1228N mutant (956 to end residues) extracted from baculovirus infected Sf9 cells using 5-FAM-KKKKEEIYFFF-CONH2 as substrate preincubated for 30 mins followed by ATP addition measured after 60 mins by fluorescence-based microfluidic mobility shift assay
Chain of Hepatocyte growth factor receptor (P08581 25-1390 D1228N limits assumed): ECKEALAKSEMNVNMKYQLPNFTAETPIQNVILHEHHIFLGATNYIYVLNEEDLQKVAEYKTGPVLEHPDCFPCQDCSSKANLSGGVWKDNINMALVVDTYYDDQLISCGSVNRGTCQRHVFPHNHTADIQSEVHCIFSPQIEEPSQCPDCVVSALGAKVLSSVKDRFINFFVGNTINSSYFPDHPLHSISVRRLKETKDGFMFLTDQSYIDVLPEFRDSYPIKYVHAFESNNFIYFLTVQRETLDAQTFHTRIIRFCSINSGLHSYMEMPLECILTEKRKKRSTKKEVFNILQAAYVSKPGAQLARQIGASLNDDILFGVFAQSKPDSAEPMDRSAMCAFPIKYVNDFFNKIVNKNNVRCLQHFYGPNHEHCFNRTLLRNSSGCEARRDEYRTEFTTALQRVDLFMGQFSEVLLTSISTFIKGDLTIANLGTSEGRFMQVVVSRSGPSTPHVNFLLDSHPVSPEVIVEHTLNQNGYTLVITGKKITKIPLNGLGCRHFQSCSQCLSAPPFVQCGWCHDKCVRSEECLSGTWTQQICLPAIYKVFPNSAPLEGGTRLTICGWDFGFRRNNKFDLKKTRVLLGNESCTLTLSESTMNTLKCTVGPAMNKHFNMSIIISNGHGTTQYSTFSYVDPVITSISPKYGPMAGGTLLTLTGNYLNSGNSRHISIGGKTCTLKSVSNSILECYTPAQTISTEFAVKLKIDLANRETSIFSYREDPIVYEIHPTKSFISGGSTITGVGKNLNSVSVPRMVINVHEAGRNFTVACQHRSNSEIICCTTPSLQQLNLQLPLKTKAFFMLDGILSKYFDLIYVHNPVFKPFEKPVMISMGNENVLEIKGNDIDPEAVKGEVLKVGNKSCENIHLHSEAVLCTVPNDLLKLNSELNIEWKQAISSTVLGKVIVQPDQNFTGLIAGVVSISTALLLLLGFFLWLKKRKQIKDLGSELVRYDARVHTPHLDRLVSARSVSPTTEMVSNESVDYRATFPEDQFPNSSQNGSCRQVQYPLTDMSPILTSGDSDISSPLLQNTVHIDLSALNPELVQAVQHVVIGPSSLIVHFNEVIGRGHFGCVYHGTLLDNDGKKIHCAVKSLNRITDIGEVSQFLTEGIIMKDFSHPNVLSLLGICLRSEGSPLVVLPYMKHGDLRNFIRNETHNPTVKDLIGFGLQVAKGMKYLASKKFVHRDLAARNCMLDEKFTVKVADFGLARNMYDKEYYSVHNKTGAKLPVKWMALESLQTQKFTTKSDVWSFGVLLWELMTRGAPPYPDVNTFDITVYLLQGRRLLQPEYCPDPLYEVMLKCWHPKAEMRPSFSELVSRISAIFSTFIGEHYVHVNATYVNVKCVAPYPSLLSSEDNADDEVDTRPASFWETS

[32] = test system: BaF3; experiment: cells; settings: Mus musculus, BaF3, 72 h; remark: listed apart in the source
[33] = AUClast in Balb/c mouse at 10 mg/kg, po; assay type: ADME, organism-based; settings: in vivo
[34] = test system: Mus musculus; experiment: In vivo inhibition of MET phosphorylation in human EBC-1 cells xenografted in athymic BALB/c nude mouse administered orally measured after 1 hr post-dose; assay type: functional, organism-based; settings: dose 2-60 mg/kg, route po
[35] = Toxicity in dog assessed as drug tolerance measured for 28 days; parameters: species or system Canis lupus familiaris; settings: in vivo, 672 h, time 28 day
[36] = species: Homo sapiens; experiment: Inhibition of c-MET Y1230 mutant (unknown origin) at 100 nM in presence of ATP by HotSpot Kinome Selectivity analysis

COc1cc2nccc(Oc3c(F)cc(NC(=O)c4cnccc4OC)cc3F)c2cc1O[C@@H](C)CO
inhibition [1]: 16%
inhibition in vivo at 6 mg/kg [2]: 77%
inhibition in vivo at 6 mg/kg [3]: 52%
inhibition [4]: Active
inhibition in vivo at 20 mg/kg [5]: 89%
AUC(0-t) [6]: 18600 ng·h/mL
pEC50 [7]: 8.60
pEC50 [8]: 9.15
inhibition in vivo at 6 mg/kg [9]: 44%
inhibition in vivo at 2 mg/kg [10]: 25%
inhibition in vivo at 2 mg/kg [11]: 26%
pEC50 [12]: 6.27
inhibition in vivo at 60 mg/kg [13]: 110%
fAUC [14]: 5100 ng·h/mL
inhibition [15]: Active
inhibition [16]: 85%
pEC50 [17]: 7.74
clearance [18]: 3.5 mL/min/kg
inhibition [19]: 65%
clearance [20]: 14.3 mL/min/kg
Activity [21]: Non-toxic
AUC(0-t) [22]: 26400 ng·h/mL
fold induction at 1 µM [23]: < 1.5
fAUC [24]: 5100 ng·h/mL
pEC50 [25]: 7.72
pEC50 [26]: 7.96 and 8.29
fold induction at 1 µM [27]: < 1.5
Activity [28]: Non-toxic
inhibition [29]: 1%
IC20 [30]: 10000 nM
pIC50 [31]: 9.70
pEC50 [32]: 8.07
AUC(0-t) [33]: 13500 ng·h/mL
inhibition [34]: Dose-dependent-effect
Activity [35]: Non-toxic
inhibition [36]: 0%
